In patent US20260062420A1, “NOVEL DPP1 INHIBITORS AND USES THEREOF” (Insmed Incorporated, priority 2022, published 2026):

Columns and labels:
DPP1 in HL-60 cells = DPP1 in HL-60 cells (Homo sapiens (Human), UniProt P53634); test: DPP1 Cell IC50 Assay (HL-60 cells, H-Gly-Phe-AFC substrate); format: cell-based; details: Table 16, read-out: Cell Assay
Experimental: HL-60 cells (ATCC; Manassas, VA) were maintained in RPMI-1640 supplemented with 20% heat-inactivated FBS and 1× Antibiotic Antimycotic (Cytiva; Marlborough, MA). Media was changed every three to four days and cells were not allowed to exceed 1×10^6 cells per mL. Prior to assay, cells were collected by centrifugation at 500 rcf for 3 minutes, resuspended in PBS and counted. Cells were diluted in PBS to a concentration of 5×10^5 live cells per mL and transferred to black 96-well plates for assay, 60 μL per well. Test articles were diluted in PBS plus 0.5% DMSO, and 20 μL was added to each assay well. Compound was allowed to pre-incubate with cells with gentle shaking at 100 rpm for 60 minutes at 37° C. in a cell culture incubator maintained at 5% CO2, after which 20 μL of 500 μM H-Gly-Phe-AFC substrate (MP Biomedicals; Solon, OH) was added to each well. Plates were returned to the incubator with shaking at 100 rpm for 30 minutes, after which fluorescence was measured at Excitation/Emission 400/505 nm. % Inhibition was calculated from RFU values compared to control cell wells that received only PBS plus 0.5% DMSO. IC50 values for each compound were calculated via the XLFit (IDBS Version 5.3.1.3) Add-On to Microsoft Excel using the four parameter fit equation y=(A+((B−A)/(1+((C/x)^D)))), which appears as equation number 205 (4 Parameter Logistic Model or Sigmoidal Dose-Response Model) in XLFit.

active mouse DPP1 enzyme = active mouse DPP1 enzyme (Mus musculus (Mouse), UniProt P97821); test: Mouse DPP1 Enzyme IC50 Assay; format: biochemical; details: mouse DPP1 enzyme; Table 16; read-out: IC50, nM; Mouse
Experimental: Test articles were applied to active mouse DPP1 enzyme (R&D Systems; Minneapolis, MN) in Assay Buffer (50 mM MES pH 5.5, 50 mM NaCl, 5 mM DTT) in a total reaction volume of 125 μL. 25 μL of compound in Assay Buffer plus 5% DMSO was first added to 50 μL of active mouse DPP1 enzyme at a concentration of 62.5 pg/μL and allowed to pre-incubate for 10 minutes at 37° C. after which 50 μL of 1000 μM H-Gly-Arg-AMC substrate (Bachem; St. Torrance, CA) was added, giving final substrate concentration of 400 μM and a final DMSO concentration of 1%. Substrate cleavage was measured for 90 minutes at 37° C., with fluorescence at Excitation/Emission 350/450 nm measured every 5 minutes. DPP1 concentration was interpolated based on its activity relative to a standard curve of recombinant active mouse DPP1 enzyme. IC50 values for each compound were calculated via the XLFit (IDBS Version 5.3.1.3) Add-On to Microsoft Excel using the four parameter fit equation y=(A+((B−A)/(1+((C/x)^D)))), which appears as equation number 205 (4 Parameter Logistic Model or Sigmoidal Dose-Response Model) in XLFit. Default constraints were used for each Parameter. IC50 was defined as the compound concentration at which 50% of enzyme activity was inhibited when compared to the no-compound control.

[1] = molecular target: Recombinant human DPP1 enzyme (Homo sapiens (Human), UniProt P53634); test: Human DPP1 Enzyme IC50 Assay; format: biochemical; details: human DPP1 enzyme; Table 16; read-out: IC50, nM; Human
Experimental: Recombinant human DPP1 enzyme (R&D Systems; Minneapolis, MN) was first proteolytically processed into its mature form using recombinant human cathepsin L (R&D Systems) in a buffer consisting of 20 mM citric acid pH 4.5, 150 mM NaCl, 1 mM EDTA and 10 mM DTT. Test articles were applied to activated human DPP1 enzyme in Assay Buffer (25 mM MES pH 6.0, 50 mM NaCl, 5 mM DTT) in a total reaction volume of 125 μL. 25 μL of compound in Assay Buffer plus 5% DMSO was first added to 50 μL of activated human DPP1 enzyme at a concentration of 1 ng/μL and allowed to pre-incubate for 10 minutes at 37° C. after which 50 μL of 1000 μM H-Gly-Arg-AMC substrate (Bachem; St. Torrance, CA) was added, giving final substrate concentration of 400 μM and a final DMSO concentration of 1%. Substrate cleavage was measured for 90 minutes at 37° C., with fluorescence at Excitation/Emission 350/450 nm measured every 5 minutes. DPP1 concentration was interpolated based on its activity relative to a standard curve of activated human recombinant DPP1 enzyme. IC50 values for each compound were calculated via the XLFit (IDBS Version 5.3.1.3) Add-On to Microsoft Excel using the four parameter fit equation y={A+[(B−A)]/[1+((C/x)^D)]}, which appears as equation number 205 (4 Parameter Logistic Model or Sigmoidal Dose-Response Model) in XLFit. Default constraints were used for each Parameter.

Chain of active mouse DPP1 enzyme (P97821 25-134): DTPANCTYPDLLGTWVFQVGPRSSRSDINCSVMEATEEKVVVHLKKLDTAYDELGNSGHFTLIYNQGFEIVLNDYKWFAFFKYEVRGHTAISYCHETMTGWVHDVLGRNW
Chain of active mouse DPP1 enzyme (P97821 231-393): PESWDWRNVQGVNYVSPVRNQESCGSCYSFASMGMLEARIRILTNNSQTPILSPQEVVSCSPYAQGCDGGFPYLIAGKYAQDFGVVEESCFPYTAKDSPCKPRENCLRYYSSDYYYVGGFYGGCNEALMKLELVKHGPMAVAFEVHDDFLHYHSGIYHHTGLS
Chain of active mouse DPP1 enzyme (P97821 394-462): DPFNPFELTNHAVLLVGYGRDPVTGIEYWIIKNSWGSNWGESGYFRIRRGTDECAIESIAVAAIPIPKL
Chain of Recombinant human DPP1 enzyme (P53634 25-134): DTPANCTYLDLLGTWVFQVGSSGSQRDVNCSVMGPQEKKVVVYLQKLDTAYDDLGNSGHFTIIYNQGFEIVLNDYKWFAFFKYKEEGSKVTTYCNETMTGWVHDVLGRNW
Chain of Recombinant human DPP1 enzyme (P53634 231-394): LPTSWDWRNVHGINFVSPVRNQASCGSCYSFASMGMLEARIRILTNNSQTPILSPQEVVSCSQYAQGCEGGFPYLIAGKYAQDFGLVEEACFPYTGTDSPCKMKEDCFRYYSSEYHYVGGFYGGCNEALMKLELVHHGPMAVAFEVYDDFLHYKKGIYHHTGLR
Chain of Recombinant human DPP1 enzyme (P53634 395-463): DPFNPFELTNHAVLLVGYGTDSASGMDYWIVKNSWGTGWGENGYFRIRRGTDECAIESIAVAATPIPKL
Chain of DPP1 in HL-60 cells (P53634 25-134): as the sequence (P53634 25-134) above
Chain of DPP1 in HL-60 cells (P53634 231-394): as the sequence (P53634 231-394) above
Chain of DPP1 in HL-60 cells (P53634 395-463): as the sequence (P53634 395-463) above

IC50 (DPP1 in HL-60 cells) [nM] | IC50 (active mouse DPP1 enzyme) [nM] | IC50 [1] [nM] | SMILES
330 | 306 | 537 | Cn1c(=O)oc2ccc(-c3ccc(C[C@@H](C#N)NC(=O)[C@@H]4COCCN4)cc3)cc21
> 1000 | 226 | 497 | Cn1c(=O)oc2ccc(-c3ccc(C[C@@H](C#N)NC(=O)[C@H]4C[C@H]5OCC[C@H]5N4)cc3)cc21
54.7 | 785 | 360 | Cn1c(=O)oc2ccc(-c3ccc(C[C@@H](C#N)NC(=O)C4CNC(C)(C)CO4)cc3)cc21 (some centres unmarked)
508 | 647 | 432 | Cn1c(=O)oc2ccc(-c3ccc(CC(C#N)NC(=O)C4CNC4)c(F)c3)cc21 (centres unmarked)
875 | 246 | 480 | N#Cc1ccc(-c2ccc(C[C@@H](C#N)NC(=O)[C@@H]3C[C@@H]4COC[C@@H]4N3)cc2)cc1
10.1 | 218 | 186 | Cn1c(=O)oc2ccc(-c3ccc(C[C@@H](C#N)NC(=O)[C@@H]4CNCCCO4)cc3F)cc21
3 ± 0.4 | 6.5 | 10.1 | N#Cc1ccc(-c2ccc(C[C@@H](C#N)NC(=O)[C@@H]3C[C@@H]4CCC[C@@H]4N3)c(F)c2)cc1
3.7 | 24 | 41.1 | Cn1c(=O)oc2ccc(-c3ccc(C[C@@H](C#N)NC(=O)[C@@H]4C[C@H]5C[C@H]5N4)cc3)cc21 [drawing 1151]
3.6 | 31 | 31.4 | N#Cc1ccc(-c2ccc(C[C@@H](C#N)NC(=O)[C@@H]3CNCCCO3)c(F)c2)cc1 [drawing 1196]
4.2 | 36.7 | 49.5 | N#Cc1ccc(-c2ccc(C[C@@H](C#N)NC(=O)[C@@H]3CNCCCO3)c(F)c2)cc1 [drawing 1197]
462 | 136 | 311 | Cn1c(=O)oc2ccc(-c3ccc(C[C@@H](C#N)NC(=O)[C@@H]4C[C@@H]5COC[C@@H]5N4)cc3)cc21 [drawing 1208]

More lines, now with the values behind:

SMILES | IC50 (DPP1 in HL-60 cells) [nM] | IC50 (active mouse DPP1 enzyme) [nM] | IC50 [1] [nM]
Cn1c(=O)oc2ccc(-c3ccc(C[C@@H](C#N)NC(=O)[C@@H]4C[C@@H]5C[C@@H]5N4)cc3)cc21 | 26 | 131 | 189
Cn1c(=O)oc2ccc(-c3ccc(C[C@@H](C#N)NC(=O)C4CC5OCCC5N4)cc3)cc21 (some centres unmarked) | 878 | 438 | 784
Cn1c(=O)oc2ccc(-c3ccc(C[C@@H](C#N)NC(=O)CC4(N)CCCCC4)cc3)cc21 | 40.1 | 815 | 1100
Cn1c(=O)oc2ccc(-c3ccc(C[C@@H](C#N)NC(=O)[C@@H]4C[C@@H]5COC[C@@H]5N4)c(F)c3)cc21 | 150 | 41.2 | 179
Cn1c(=O)oc2ccc(-c3ccc(C[C@@H](C#N)NC(=O)[C@@H]4C[C@@H]5CCC[C@@H]5N4)cc3)cc21 | 3.1 | 8.2 | 17.3
Cn1c(=O)oc2ccc(-c3ccc(C[C@@H](C#N)NC(=O)C4CNCC45CCC5)cc3)cc21 (some centres unmarked) [drawing 1188] | 60.4 | 2080 | 828
Cn1c(=O)oc2ccc(-c3ccc(C[C@@H](C#N)NC(=O)[C@@H]4C[C@@H]5CCC[C@@H]5N4)c(F)c3)cc21 [drawing 1220] | 1.7 | 3.4 | 5.9
Cn1c(=O)oc2ccc(-c3ccc(C[C@@H](C#N)NC(=O)[C@@H]4C[C@@H]5CCC[C@@H]5N4)c(F)c3)cc21 [drawing 1227] | 1.9 |  | 7.6
